Reference: US20090305259A1, “Early Diagnosis of Congenital Abnormalities in the Offspring of Diabetic Mothers” (YALE UNIVERSITY, priority 2006, published 2009)
Entries after “also recorded” stand apart in the source; their conditions may differ.

Experiments:
yolk sac vasculogenesis = test: Whole conceptus culture: yolk sac vasculogenesis under hyperglycemia; format: cell-based, mouse; settings: for rescue of hyperglycemia-arrested yolk sac vascular development (arborization): conceptus culture with 20 mM D-glucose plus agent, PECAM-1 staining
Procedure: Timed pregnant mice are used to harvest 7.5 and 9.5 days post conception (dpc) conceptuses from which yolk sac and hearts are dissected. The atrioventricular canals are isolated for subsequent culture and analysis of the epithelial to mesenchymal transformation that occurs in the formation of the endocardial cushion.
(§1) Conceptuses are cultured for 48 hrs in the presence of rat serum or rat serum+20 mM D-Glucose, or rat serum+20 mM D-Glucose+rVEGF or NO donor or 20 mM mannitol for 48 hrs. At 8.5 dpc the yolk sacs are harvested and analyzed using LC-MS and LC-MS-MS methods as well as by traditional cell and molecular biological methods. At 9.5 dpc atrioventricular (AV) canals are harvested from the conceptuses and cultured for 48 to 72 hrs on collagen gels to allow epithelial-mesenchymal transformation (EMT). The AV canal cultures are analyzed by double or triple label standard and confocal immunofluorescence microscopy, laser dissection capture microscopy followed by Western blotting for protein determination, characterization and localization. The effects of exogenous VEGF-A (1, 10 & 20 ng/ml), Pro- and mature BDNF (1, 25 & 50 ng/ml), NO donor (Noc-18) TIMP-1 and TIMP-2 (1, 25 & 50 ng/ml) on EMT and protein expression, post-translational modification and degradation are assessed.
Using this embryo culture system, groups of ten 7.5 dpc conceptuses were cultured in normoglycemic conditions (5.0 mM D-glucose [control]), hyperglycemic conditions (20 mM D-glucose [HG]), HG+10 pg/ml VEGF A165 (HG+rVEGF) and HG+a slow release NO donor (HG+Noc-18) for 24 hrs. The conceptuses were harvested at 8.5 dpc when their yolk sacs were at the primary capillary plexus stage and beginning to undergo vascular remodeling. Lysates were then prepared for SDS-PAGE, Silver Staining and MS analysis. FIG. 4A depicts PECAM-1 staining of the capillary plexas at 8.5 dpc and illustrates the non-descript vascular plexus observable at this stage of development. […] This is in contrast to LC-MS and LC-MS-MS analyses of these samples (see below).

cardiac EMT = settings: cardiac A-V canal and outflow tract cultures, 20 mM D-glucose; cited from earlier work
Wnt16 = test: Western blot of Wnt16 in yolk sacs across treatment groups; format: cell-based, mouse; settings: yolk sac / whole conceptus culture, 20 mM D-glucose plus agent
Procedure: as §1
(§2) Further, several of these proteins were validated in conceptus culture assays prior to and following VEGF and NO donor rescues using Western blotting, histological and immunolocalization analyses. […] Further, sequestration of Wnt16 (FIG. 11), ADAM 15 (FIG. 12), and NOGO A (FIG. 13) by antibodies directed against them abrogated EMT in cardiac AVC cushion explant cultures. […]

ADAM 15 = test: Western blot of ADAM 15 in yolk sacs across treatment groups; format: cell-based, mouse; settings: yolk sac / whole conceptus culture, 20 mM D-glucose plus agent
Procedure: as §1, §2

NOGO A = test: Western blot of NOGO A in yolk sacs across treatment groups; format: cell-based, mouse; settings: yolk sac culture, hyperglycemia plus agent, listed as NO donor
Procedure: as §1, §2

developing conceptuses = settings: 250 mg/kg prior to mating; fast elimination; cited from earlier work

In the case of `OC[C@H]1O[C@H](O)[C@H](O)[C@@H](O)[C@@H]1O` [alpha-D-glucose], the “effect on yolk sac vasculogenesis” value (yolk sac vasculogenesis; transient (as little as 3 hr) exposure, 20 mM alpha-D-glucose) is listed as “arrest yolk sac vasculogenesis at the primary capillary plexus stage” and the “effect on cardiac cushion formation” value (cardiac EMT) is listed as “arrested cushion formation”.

For `NCCN(CCN)/[N+]([O-])=N/O` [NOC-18], the “rescue of hyperglycemia-arrested yolk sac vascular development (arborization)” value (shortened to “rescue”) (yolk sac vasculogenesis) was “rescue of the hyperglycemic arrest of vascular development; also recorded: restore normal vascular morphology; also recorded: rescue of yolk Sac vascular development”, the “rescue” value (yolk sac vasculogenesis; listed as NO donor) was “reversed” and the “rescue” value (yolk sac vasculogenesis; listed as NOD) was “restores vascular arborization”. For the same compound, the “Wnt16 expression level (upregulated by hyperglycemia) after treatment” value (Wnt16) was “down-regulated to near normoglycemic levels”, the “Wnt16 expression level (upregulated by hyperglycemia) after treatment” value (Wnt16; listed as NO donor) was “rescued; also recorded: returned to normal levels” and the “ADAM 15 expression level (downregulated by hyperglycemia) after treatment” value (ADAM 15) was “up-regulated to near normoglycemic levels”. The “ADAM 15 expression level (downregulated by hyperglycemia) after treatment” value (ADAM 15; listed as NO donor) was “rescued; also recorded: returned to normal levels” and the “NOGO A expression level (downregulated by hyperglycemia) after treatment” value (NOGO A) was “rescued; also recorded: returned to normal levels”.

In the case of `CN(N=O)C(=O)N[C@H]1C(O)O[C@H](CO)[C@@H](O)[C@@H]1O` (mixture of isomers) [Streptozotocin], the “toxic effect on the developing conceptuses” value (developing conceptuses) is given as “no toxic effect”.
